This note sets out measurements from ChEMBL document CHEMBL1121787, “Some 14 beta-substituted analogues of N-(cyclopropylmethyl)normorphine” (J Med Chem, 1981).

As a reminder, the pIC50 is the negative decadic logarithm of the IC50, by convention in mol/L. A high value points to a small IC50. In general, Inhibition refers to how much of the control response was suppressed.

pIC50: −log10 of the molar value. Where “and” joins values, the source holds several entries; their conditions need not be identical. Equal values may be shown once. Calls of active or inactive are those of the source. No cut-off for these calls is given here.

The species entered for one experiment is Cavia porcellus. The experiment in a line: Opioid agonistic activity was measured in guinea pig ileum. The class given is functional.
Experiment [1] is filed under the species Mus musculus. The experiment in a line: Opioid agonistic activity was measured in mouse vas deferens. Format: functional.
The species named for experiment [2] is Mus musculus. The experiment is described as follows: Opioid antagonist activity of compound was measured as inhibiting the binding of normorphine to mouse vas deferens. Format: functional.
The test system of experiment [3] is Opioid receptors; mu & kappa. The conditions noted are these: Cavia porcellus; Ileum.
Experiment [4] is filed under the species Mus musculus.
The species named for experiment [5] is Mus musculus. The experiment is described as follows: Opioid agonistic activity was measured in mouse vas deferens. Format: functional.

As for `Oc1ccc2c3c1O[C@H]1[C@@H](O)C=C[C@@]4(S)C(C2)N(CC2CC2)CCC314` (some centres undefined), the pIC50 in the experiment listed under Cavia porcellus was 7.41; in the experiment listed under Mus musculus [1], 6.66. Further, the Ke in the experiment filed under Mus musculus [2] was 22.9 nM and 20 nM; in experiment [3] it was 1.69 nM.

As for `O=C1C=C[C@@]2(Br)C3Cc4ccc(O)c5c4C2(CCN3CC2CC2)[C@H]1O5` (some centres undefined), the Ke is 2.35 nM and 2.83 nM in the experiment filed under Mus musculus [2]; 1.36 nM in experiment [3].

Take `O=C1CC[C@@]2(O)[C@H]3Cc4ccc(O)c5c4[C@@]2(CCN3CC2CC2)[C@H]1O5` [NALTREXONE]: in the experiment listed under Cavia porcellus, the Inhibition is given as 25%.

With `O=C1C=C[C@@]2(Cl)C3Cc4ccc(O)c5c4C2(CCN3CC2CC2)[C@H]1O5` (some centres undefined), the Ke in the experiment listed under Mus musculus [2] was determined as 16.6 nM; in experiment [3], 3.92 nM.

As to `CN1CC[C@]23c4c5ccc(O)c4O[C@H]2[C@@H](O)C=C[C@H]3[C@H]1C5`, the Ke entry in the experiment filed under Mus musculus [4] is “inactive”.

With `O=C1C=C[C@@]2([N+](=O)[O-])C3Cc4ccc(O)c5c4C2(CCN3CC2CC2)[C@H]1O5` (some centres undefined), the negative logarithm of the IC50 (pIC50) in the experiment listed under Cavia porcellus was 7.39; in the experiment filed under Mus musculus [1], 6.48; in the experiment listed under Mus musculus [5], 6.24. In addition, the Ke worked out at 14.9 nM in the experiment listed under Mus musculus [2] and 4.44 nM in experiment [3].

As for `C=CCN1CC[C@]23c4c5ccc(O)c4O[C@H]2C(=O)CC[C@@]3(O)[C@H]1C5` [NALOXONE], in the experiment filed under Mus musculus [2], the Ke is given as 3.66 nM.

Consider `Oc1ccc2c3c1O[C@H]1[C@@H](O)C=C[C@H]4C(C2)N(CC2CC2)CCC341` (some centres undefined), for which the negative-log IC50 (pIC50) in the experiment listed under Cavia porcellus is 8.67. For the same molecule, the Ke in experiment [3] came out at 0.8 nM.

As to `C=CCN1CC[C@]23c4c5ccc(O)c4O[C@H]2[C@@H](O)C=C[C@H]3[C@H]1C5` [NALORPHINE], the pIC50 is 7.61 in the experiment listed under Cavia porcellus and 6.27 in the experiment listed under Mus musculus [1]. Further, the Ke amounted to 28.7 nM in the experiment filed under Mus musculus [2] and 4.47 nM in experiment [3].

In the case of `Oc1ccc2c3c1O[C@H]1[C@@H](O)C=C[C@@]4(O)C(C2)N(CC2CC2)CCC314` (some centres undefined), the Ke in the experiment listed under Mus musculus [2] is 10.5 nM and 9 nM; in experiment [3], 2.35 nM.
